# Measured values: patent US6699678B1, “Chlamydia trachomatis specific peptides and their use in diagnostic assays” (Savyon Diagnostics Ltd., priority 1997, dated 2004)
# Type: physicochemical
# From the text: c. Stabilizing the kit for longer shelf life.
# Results: The wash buffer that enabled only three washing steps was the one that contained non-ionic detergent, this being the above-noted PBS-TWEEN buffer (see constituent no. (ii) in the above list).
# This is also the case for the other reagents used in the improved kit, as mentioned above.
Compound,storage stability at 4° C. (in words),storage stability at 37° C. (in words)
CCN(Cc1cccc(S(=O)(=O)[O-])c1)c1ccc(C(=C2C=CC(=[N+](CC)Cc3cccc(S(=O)(=O)[O-])c3)C=C2)c2ccccc2S(=O)(=O)[O-])cc1.[Na+].[Na+] [blue brilliant],for one year,stable for one month
O=S(=O)([O-])c1ccc(N=Nc2c(O)ccc3cc(S(=O)(=O)[O-])ccc23)cc1.[Na+].[Na+] [yellow sunset],for one year,stable for one month
